The structures appear in SMILES notation.

The AUC is the area under the concentration-time curve, a measure of exposure. Higher therefore signals more exposure.

This series in a line: AUC in mouse at 300 mg/kg, po. The series is classed as ADME, organism-based. Further details: dose 300 mg/kg, route oral. As to conditions: plasma.

As for `CCNC(=O)Nc1nc2cc(-c3cccnc3)c(=O)n(C(C)C)c2s1`, the AUC was determined as 981 µM·h.

The values above are taken from ChEMBL document CHEMBL3112566, “Thiazolopyridone ureas as DNA gyrase B inhibitors: optimization of antitubercular activity and efficacy” (Bioorg Med Chem Lett, 2014).
